Reference: article PMC5454378, “Histone deacetylase 10 structure and molecular function as a polyamine deacetylase” (Nature Communications, 2017)

Assays:
Assay type in all cases: biochemical
zHDAC10 [1] = target: T1, zHDAC10 (Danio rerio, UniProt F1QCV2); experiment: LC–MS deacetylase inhibition assay with N8-acetylspermidine; Ki by Cheng-Prusoff
T1 construct: gene hdac10; full-length, residues 2–675
T1 sequence (F1QCV2 2-675): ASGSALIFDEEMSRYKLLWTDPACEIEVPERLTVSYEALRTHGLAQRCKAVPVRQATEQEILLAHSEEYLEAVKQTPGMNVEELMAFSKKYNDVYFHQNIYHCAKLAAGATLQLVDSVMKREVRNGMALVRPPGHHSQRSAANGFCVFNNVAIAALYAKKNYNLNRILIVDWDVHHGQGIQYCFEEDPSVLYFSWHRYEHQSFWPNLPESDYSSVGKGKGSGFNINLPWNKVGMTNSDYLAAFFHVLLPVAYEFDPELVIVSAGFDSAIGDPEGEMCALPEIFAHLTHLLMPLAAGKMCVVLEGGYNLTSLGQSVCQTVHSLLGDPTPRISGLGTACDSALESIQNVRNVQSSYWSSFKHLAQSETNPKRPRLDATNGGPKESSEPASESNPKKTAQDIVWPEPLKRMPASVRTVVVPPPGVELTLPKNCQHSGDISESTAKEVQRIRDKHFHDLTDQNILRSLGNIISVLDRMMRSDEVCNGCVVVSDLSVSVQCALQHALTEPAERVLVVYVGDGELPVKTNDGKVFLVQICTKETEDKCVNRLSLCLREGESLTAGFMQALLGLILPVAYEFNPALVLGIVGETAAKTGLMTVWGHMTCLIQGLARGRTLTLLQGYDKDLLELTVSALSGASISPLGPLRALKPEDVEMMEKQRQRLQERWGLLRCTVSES

hHDAC10 [2] = target: T2, hHDAC10 (Homo sapiens, UniProt Q969S8); experiment: LC–MS steady-state kinetics
T2 construct: gene HDAC10; full-length, residues 2–669, MBP fusion
T2 sequence (Q969S8 2-669): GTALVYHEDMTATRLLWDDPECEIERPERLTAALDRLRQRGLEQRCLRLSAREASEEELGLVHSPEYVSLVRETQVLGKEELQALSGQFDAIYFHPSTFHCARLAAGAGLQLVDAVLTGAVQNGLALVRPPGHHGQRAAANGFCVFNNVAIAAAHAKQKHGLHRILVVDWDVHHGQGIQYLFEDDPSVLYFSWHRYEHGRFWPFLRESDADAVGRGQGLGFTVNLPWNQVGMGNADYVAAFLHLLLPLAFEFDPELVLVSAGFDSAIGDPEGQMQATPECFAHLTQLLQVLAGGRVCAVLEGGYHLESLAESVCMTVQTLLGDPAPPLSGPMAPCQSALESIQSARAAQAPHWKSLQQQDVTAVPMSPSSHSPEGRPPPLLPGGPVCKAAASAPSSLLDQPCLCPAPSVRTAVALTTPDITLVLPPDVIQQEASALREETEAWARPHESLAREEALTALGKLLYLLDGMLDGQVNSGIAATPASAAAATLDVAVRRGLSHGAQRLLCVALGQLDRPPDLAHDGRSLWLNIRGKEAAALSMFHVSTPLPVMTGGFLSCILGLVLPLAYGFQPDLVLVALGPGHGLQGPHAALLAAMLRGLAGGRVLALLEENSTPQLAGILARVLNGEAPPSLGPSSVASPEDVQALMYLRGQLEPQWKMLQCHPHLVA

zHDAC10 [3] = target: T1, zHDAC10; experiment: LC–MS steady-state kinetics
zHDAC10 [4] = target: T1, zHDAC10; experiment: LC–MS steady-state kinetics (kcat/KM)
hHDAC10 [5] = target: T2, hHDAC10; experiment: LC–MS steady-state kinetics (kcat/KM)

Compound	LC-MS steady-state kinetics (hHDAC10 [2])	LC-MS steady-state kinetics (zHDAC10 [3])	further results
NCCCNCCCCCC(=O)C(F)(F)F [AAT, 7-[(3-aminopropyl)amino]-1,1,1-trifluoroheptan-2-one]			Ki (zHDAC10 [1]): 700 ± 200 nM
CC(=O)NCCCCCN [AcCAD, acetylcadaverine]	substantial catalytic activity was also observed with acetylcadaverine and acetylputrescine	substantial catalytic activity was also observed with acetylcadaverine and acetylputrescine	
CC(=O)NCCCCCCCCN [AcDAO, N-(8-aminooctyl)acetamide]		also observed with acetylcadaverine and acetylputrescine, as well as N-(8-aminooctyl)acetamide	
CC(=O)NCCCCN [AcPUT, acetylputrescine]	substantial catalytic activity was also observed with acetylcadaverine and acetylputrescine	substantial catalytic activity was also observed with acetylcadaverine and acetylputrescine	
CC(=O)NCCCCNCCCN [N^8-AcSPD, N^8-acetylspermidine]			LC-MS steady-state kinetics (kcat/KM) (zHDAC10 [4]): 4,600±300 M^−1 s^−1; LC-MS steady-state kinetics (kcat/KM) (hHDAC10 [5]): 2,900±200 M^−1 s^−1
